Biological target: SOS1:KRAS (G12C) interaction (Homo sapiens (Human), UniProt Q07889)
Assay: SOS1 KRas(G12C) FRET Assay
Assay type: binding
Conditions: 0.5 nM His10-SOS1 (res. 564-1049), 2.5 nM GST-KRAS G12C (res. 1-169), 2 hrs at RT
Experimental: Inhibition of the SOS 1:KRAS interaction was measured using purified GST-tagged KRAS (res. 1-169, G12C, purified based on Hillig, et al., Proc Natl Acad Sci USA (2019); 116(7):2551-2560) and recombinant His10-SOS1 (res. 564-1049; purified based on Hillig, et al.). The final assay was performed at 20 uL with 0.5 nM SOS1 protein and 2.5 nM KRAS protein in a buffer of PBS, 0.1% BSA, 5 mM MgCh, 0.0025% Igepal, 100 mM KF, 5 mM DTT in a white 384 square well OptiPlate (PerkinElmer, Cat. 6007290). A 2x KRAS working solution was prepared in an assay buffer containing 5 nM GST-KRAS G12C and 2 nM anti-GST-Eu(K) (Cisbio, Cat. 61GSTKLA) and pre-incubated for 15 minutes at 25° C. […] The final DMSO concentration is 0.5%. Plates were incubated at RT for 2 hrs before the FRET signal was measured using Envision at emission 665 nm and 615 nm. FRET signal was converted to percentage of protein-protein interaction using the following equation:
• C: signal with compound treatment • P: signal for positive control (DMSO) • N: signal for negative control (no SOS1 added)
IC50 and Hill coefficients were obtained using Graph Pad Prism (Graph Pad software, Inc, USA) with non-linear regression analysis.

SOS1:KRAS (G12C) interaction, sequence (Q07889 564-1049, stated change not applied): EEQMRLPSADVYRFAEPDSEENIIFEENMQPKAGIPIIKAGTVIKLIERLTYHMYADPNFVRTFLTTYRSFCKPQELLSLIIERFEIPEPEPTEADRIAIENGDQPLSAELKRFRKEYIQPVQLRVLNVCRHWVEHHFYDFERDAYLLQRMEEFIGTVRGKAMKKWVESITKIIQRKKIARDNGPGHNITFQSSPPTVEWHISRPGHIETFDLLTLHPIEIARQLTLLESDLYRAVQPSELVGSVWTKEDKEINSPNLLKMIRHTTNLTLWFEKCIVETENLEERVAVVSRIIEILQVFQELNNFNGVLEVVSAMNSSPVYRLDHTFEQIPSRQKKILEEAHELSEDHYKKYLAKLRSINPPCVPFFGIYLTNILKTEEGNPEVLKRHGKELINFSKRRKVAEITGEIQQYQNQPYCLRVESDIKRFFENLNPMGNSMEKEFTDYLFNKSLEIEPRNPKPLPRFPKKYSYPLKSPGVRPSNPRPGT

IC50 [nM] | SMILES
18.2 | C[C@@H](NC(=O)c1cn(C2(C(F)F)CC2)c(=O)cc1N[C@@H]1CCN2CCC[C@H]2C1)c1cccc(C(F)F)c1F (single isomer, unassigned) [Example 303]
25.7 | C[C@@H](NC(=O)c1cn(C2(C(F)F)CC2)c(=O)cc1N[C@H]1CCN2CCC[C@@H]2C1)c1cccc(C(F)F)c1F (single isomer, unassigned) [Example 304]
23.3 | C[C@@H](NC(=O)c1cn(C2(C(F)F)CC2)c(=O)cc1N[C@H]1CCN2CCC[C@H]2C1)c1cccc(C(F)F)c1F (single isomer, unassigned) [Example 305]
41.7 | C[C@@H](NC(=O)c1cn(C2(C(F)F)CC2)c(=O)cc1N[C@@H]1CCN2CCC[C@@H]2C1)c1cccc(C(F)F)c1F (single isomer, unassigned) [Example 306]
4.9 | C[C@@H](NC(=O)c1cn([C@@H]2CCOC(C)(C)C2)c(=O)cc1NC1CCN(C)CC1)c1cccc(C(F)F)c1F (single isomer, unassigned) [Example 307]
17.9 | C[C@@H](NC(=O)c1cn([C@H]2CCOC(C)(C)C2)c(=O)cc1NC1CCN(C)CC1)c1cccc(C(F)F)c1F (single isomer, unassigned) [Example 308]
9.7 | C[C@@H](NC(=O)c1cn(C2(C(F)F)CC2)c(=O)cc1N[C@H]1CCN(C)C2(CC2)C1)c1cccc(C(F)F)c1F (single isomer, unassigned) [Example 311]
35.6 | C[C@@H](NC(=O)c1cn(C2(C(F)F)CC2)c(=O)cc1N[C@@H]1CCN(C)C2(CC2)C1)c1cccc(C(F)F)c1F (single isomer, unassigned) [Example 312]
27.4 | Cc1c([C@@H](C)NC(=O)c2cn(C3CCOCC3)c(=O)cc2NC2CCN(C)CC2)cccc1C(F)(F)F [Example 1, (R)-N-(I-(2-methyl-3-(trifluoromethyl)phenyl)ethyl)-4-((I-methylpiperidin-4-yl)amino)-6-oxo-1-(tetrahydro-2H-pyran-4-yl)-1,6-dihydropyridine-3-carboxamide]
37.6 | Cc1c([C@@H](C)NC(=O)c2cn(C3CCOCC3)c(=O)cc2NCC23CCCN2CCC3)cccc1C(F)(F)F [Example 11, (R)-N-(1-(2-methyl-3-(trifluoromethyl)phenyl)ethyl)-6-oxo-4-(((tetrahydro-1H-pyrrolizin-7a(5H)-yl)methyl)amino)-1-(tetrahydro-2H-pyran-4-yl)-1,6-dihydropyridine-3-carboxamide]
847 | Cc1c([C@@H](C)NC(=O)c2cn(C3CCOCC3)c(=O)cc2NC2CCN(CC(F)(F)F)CC2)cccc1C(F)(F)F [Example 15, (R)-N-(1-(2-methyl-3-(trifluoromethyl)phenyl)ethyl)-6-oxo-1-(tetrahydro-2H-pyran-4-yl)-4-((1-(2,2,2-trifluoroethyl)piperidin-4-yl)amino)-1,6-dihydropyridine-3-carboxamide]
717 | Cc1c([C@@H](C)NC(=O)c2cn(C3CCOCC3)c(=O)c(Br)c2NC2CCN(C)CC2)cccc1C(F)(F)F [Example 17, (R)-5-bromo-N-(1-(2-methyl-3-(trifluoromethyl)phenyl)ethyl)-4-((1-methylpiperidin-4-yl)amino)-6-oxo-1-(tetrahydro-2H-pyran-4-yl)-1,6-dihydropyridine-3-carboxamide]
77.8 | COc1c(NC2CCN(C)CC2)c(C(=O)N[C@H](C)c2cccc(C(F)(F)F)c2C)cn(C2CCOCC2)c1=O [Example 18, (R)-5-methoxy-N-(1-(2-methyl-3-(trifluoromethyl)phenyl)ethyl)-4-((1-methylpiperidin-4-yl)amino)-6-oxo-1-(tetrahydro-2H-pyran-4-yl)-1,6-dihydropyridine-3-carboxamide]
347 | Cc1c([C@@H](C)NC(=O)c2cn(C3CCOCC3)c(=O)c(C)c2NC2CCN(C)CC2)cccc1C(F)(F)F [Example 19, (R)-5-methyl-N-(1-(2-methyl-3-(trifluoromethyl)phenyl)ethyl)-4-((1-methylpiperidin-4-yl)amino)-6-oxo-1-(tetrahydro-2H-pyran-4-yl)-1,6-dihydropyridine-3-carboxamide]
21.8 | Cc1c([C@@H](C)NC(=O)c2cn(C3CCOCC3)c(=O)cc2N[C@H]2C[C@@H](N(C)C)C2)cccc1C(F)(F)F [Example 27]
59.2 | Cc1c([C@@H](C)NC(=O)c2cn(C3CCOCC3)c(=O)cc2NC2CN(C)C2)cccc1C(F)(F)F [Example 28, (R)-N-(1-(2-methyl-3-(trifluoromethyl)phenyl)ethyl)-4-((1-methylazetidin-3-yl)amino)-6-oxo-1-(tetrahydro-2H-pyran-4-yl)-1,6-dihydropyridine-3-carboxamide]
36.3 | Cc1c([C@@H](C)NC(=O)c2cn(C3CCOCC3)c(=O)cc2NCC2(F)CN(C)C2)cccc1C(F)(F)F [Example 30, (R)-4-(((3-fluoro-1-methylazetidin-3-yl)methyl)amino)-N-(1-(2-methyl-3-(trifluoromethyl)phenyl)ethyl)-6-oxo-1-(tetrahydro-2H-pyran-4-yl)-1,6-dihydropyridine-3-carboxamide]
44 | Cc1c([C@@H](C)NC(=O)c2cn(C3CCOCC3)c(=O)cc2N[C@H]2CCCCN(C)C2)cccc1C(F)(F)F [Example 35, N-((R)-1-(2-methyl-3-(trifluoromethyl)phenyl)ethyl)-4-(((S)-1-methylazepan-3-yl)amino)-6-oxo-1-(tetrahydro-2H-pyran-4-yl)-1,6-dihydropyridine-3-carboxamide]
30.8 | Cc1c([C@@H](C)NC(=O)c2cn(C3CCOCC3)c(=O)cc2N[C@@H]2CCCCN(C)C2)cccc1C(F)(F)F [Example 36, N-((R)-1-(2-methyl-3-(trifluoromethyl)phenyl)ethyl)-4-(((R)-1-methylazepan-3-yl)amino)-6-oxo-1-(tetrahydro-2H-pyran-4-yl)-1,6-dihydropyridine-3-carboxamide]
7.8 | C[C@@H](NC(=O)c1cn(C2CCOCC2)c(=O)cc1NC1CCN(C)CC1)c1cccc(C(F)F)c1F [Example 41, (R)-N-(1-(3-(difluoromethyl)-2-fluorophenyl)ethyl)-4-((1-methylpiperidin-4-yl)amino)-6-oxo-1-(tetrahydro-2H-pyran-4-yl)-1,6-dihydropyridine-3-carboxamide]
75.7 | Cc1c([C@@H](C)NC(=O)c2cn(C3CCOCC3)c(=O)cc2NC2CNC2)cccc1C(F)(F)F [Example 43, (R)-4-(azetidin-3-ylamino)-N-(1-(2-methyl-3-(trifluoromethyl)phenyl)ethyl)-6-oxo-1-(tetrahydro-2H-pyran-4-yl)-1,6-dihydropyridine-3-carboxamide]
34.6 | Cc1c([C@@H](C)NC(=O)c2cn(C3CCOCC3)c(=O)cc2NC2CCNC2)cccc1C(F)(F)F (stereo partly drawn) [Example 44, N-((R)-1-(2-methyl-3-(trifluoromethyl)phenyl)ethyl)-6-oxo-4-(pyrrolidin-3-ylamino)-1-(tetrahydro-2H-pyran-4-yl)-1,6-dihydropyridine-3-carboxamide]
18.2 | Cc1c([C@@H](C)NC(=O)c2cn(C3CCOCC3)c(=O)cc2NCCONC(=N)N)cccc1C(F)(F)F [Example 46, (R)-4-((2-(guanidinooxy)ethyl)amino)-N-(1-(2-methyl-3-(trifluoromethyl)phenyl)ethyl)-6-oxo-1-(tetrahydro-2H-pyran-4-yl)-1,6-dihydropyridine-3-carboxamide]
15.6 | C[C@@H](NC(=O)c1cn(C2(C(F)F)CC2)c(=O)cc1NC1CCN(C)CC1)c1cccc2c1OCC2(F)F [Example 53, (R)-N-(1-(3,3-difluoro-2,3-dihydrobenzofuran-7-yl)ethyl)-1-(1-(difluoromethyl)cyclopropyl)-4-((1-methylpiperidin-4-yl)amino)-6-oxo-1,6-dihydropyridine-3-carboxamide]
26.6 | C[C@@H](NC(=O)c1cn(C2(C(F)F)CC2)c(=O)cc1NC1CCN(C)CC1)c1cccc2c(F)coc12 [Example 54, (R)-1-(1-(difluoromethyl)cyclopropyl)-N-(1-(3-fluorobenzofuran-7-yl)ethyl)-4-((1-methylpiperidin-4-yl)amino)-6-oxo-1,6-dihydropyridine-3-carboxamide]
34.2 | C[C@@H](NC(=O)c1cn(C2(C(F)F)CC2)c(=O)cc1N[C@@H]1[C@@H]2CN(C)C[C@@H]21)c1cccc(C(F)F)c1F [Example 56, N-((R)-1-(3-(difluoromethyl)-2-fluorophenyl)ethyl)-1-(1-(difluoromethyl)cyclopropyl)-4-(((1R,5S,6r)-3-methyl-3-azabicyclo[3.1.0]hexan-6-yl)amino)-6-oxo-1,6-dihydropyridine-3-carboxamide]
28.2 | [2H]C([2H])([2H])N1C[C@@H]2[C@H](C1)[C@H]2Nc1cc(=O)n(C2(C(F)F)CC2)cc1C(=O)N[C@H](C)c1cccc(C(F)F)c1F [Example 57, N-((R)-1-(3-(difluoromethyl)-2-fluorophenyl)ethyl)-1-(1-(difluoromethyl)cyclopropyl)-4-(((1R,5S,6s)-3-(methyl-d3)-3-azabicyclo[3.1.0]hexan-6-yl)amino)-6-oxo-1,6-dihydropyridine-3-carboxamide]
